Source: US10611740B2, “Aryl dihydro-2H-benzo[b][1,4]oxazine sulfonamide and related compounds for use as agonists of RORγ and the treatment of disease” (Lycera Corporation, priority 2015, dated 2020)

How the values were obtained:
[1] = target: T1, RORγ-LBD (Homo sapiens, UniProt P51449); experiment: RORγ-Ligand Binding Domain (LBD) TR-FRET Assay; type: biochemical;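 as to TR-FRET Assay Max Response: 665/615 nm ratio relative to signal without ursolic acid or compound set at 100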
T1 construct: made in house; host or cells: SF9 cells (baculovirus)
T1 sequence (P51449 269-508 limits assumed): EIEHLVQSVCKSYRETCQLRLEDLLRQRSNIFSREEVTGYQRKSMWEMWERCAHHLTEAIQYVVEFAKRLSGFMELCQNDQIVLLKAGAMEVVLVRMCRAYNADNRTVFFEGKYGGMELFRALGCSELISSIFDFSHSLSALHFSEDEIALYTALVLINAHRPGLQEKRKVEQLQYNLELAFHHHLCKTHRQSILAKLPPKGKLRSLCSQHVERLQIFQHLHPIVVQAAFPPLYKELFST
In short: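 Lysate from SF9 cells expressing His-RORγ-LBD is diluted to about 3 nM final in 50 mM Tris pH 7.0 assay buffer. A biotin-tagged SRC1 LXXLL peptide goes in at 200 nM final, plus ursolic acid at 2 μM final. Test compounds carry 1% DMSO final; signal read by TR-FRET.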

[2] = target: T2, Gal4-RORγ-LBD (Homo sapiens, UniProt P51449); experiment: Gal4-RORγ Luciferase Reporter Assay in HEK-293T Cells; type: cell-based; conditions: HEK-293 cells, luciferase reporter, with 2 μM ursolic acid
T2 construct: expressed in transfected cells; host or cells: HEK-293 cells (pcDNA3.1neo plasmid)
T2 sequence (P51449 269-508 limits assumed): T1 sequence (P51449 269-508 limits assumed)
In short: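 In transfected HEK-293 cells (Gal4-RORγ-LBD, Gal4-luciferase), test agents with 2 μM ursolic acid were incubated overnight at 37 °C before luminescent detection. Values are relative to the ursolic-acid-free, compound-free signal (100).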

Structure (SMILES)	EC50 [1] [nM]	TR-FRET Assay Max Response [1]	EC50 [2] [nM]	Gal4-RORγ Assay Max Response [2]
Cc1ncc(F)cc1-c1ccc2c(c1)N(S(=O)(=O)c1cccc(C(F)(F)F)c1)C[C@H](CCC(=O)O)O2 [Compound 4AF, (S)-3-(6-(5-fluoro-2-methylpyridin-3-yl)-4-((3-(trifluoromethyl)phenyl)sulfonyl)-3,4-dihydro-2H-benzo[b][1,4]oxazin-2-yl)propanoic acid]	< 500	**** (The symbol “****” indicates a value greater than 200)	< 500	** (The symbol “**” indicates a value in the range of greater than 90 to 150)
Cc1c(F)cccc1-c1ccc2c(c1)N(S(=O)(=O)c1cccc(C(F)(F)F)c1)C[C@H](CCC(=O)O)O2 [Compound 4AG, (S)-3-(6-(3-fluoro-2-methylphenyl)-4-((3-(trifluoromethyl)phenyl)sulfonyl)-3,4-dihydro-2H-benzo[b][1,4]oxazin-2-yl)propanoic acid]	< 500	**** (The symbol “****” indicates a value greater than 200)	< 500	** (The symbol “**” indicates a value in the range of greater than 90 to 150)
CCc1cccc(-c2ccc3c(c2)N(S(=O)(=O)c2cccc(C(F)(F)F)c2)C[C@H](CCC(=O)O)O3)c1 [Compound 4AH, (S)-3-(6-(3-ethylphenyl)-4-((3-(trifluoromethyl)phenyl)-sulfonyl)-3,4-dihydro-2H-benzo[b][1,4]oxazin-2-yl)propanoic acid]	< 500	**** (The symbol “****” indicates a value greater than 200)	< 500	** (The symbol “**” indicates a value in the range of greater than 90 to 150)
Cc1c(F)cc(F)cc1-c1ccc2c(c1)N(S(=O)(=O)c1cccc(C(F)(F)F)c1)C[C@H](CCC(=O)O)O2 [Compound 4AJ, (S)-3-(6-(3,5-difluoro-2-methylphenyl)-4-((3-(trifluoromethyl)phenyl)-sulfonyl)-3,4-dihydro-2H-benzo[b][1,4]oxazin-2-yl)propanoic acid]	< 500	**** (The symbol “****” indicates a value greater than 200)	< 500	** (The symbol “**” indicates a value in the range of greater than 90 to 150)
O=C(O)CC[C@H]1CN(S(=O)(=O)c2cccc(C(F)(F)F)c2)c2cc(-c3cc(F)cc(F)c3F)ccc2O1 [Compound 4AK, (S)-3-(4-((3-(trifluoromethyl)-phenyl)sulfonyl)-6-(2,3,5-trifluorophenyl)-3,4-dihydro-2H-benzo[b][1,4]oxazin-2-yl)propanoic acid]	< 500	**** (The symbol “****” indicates a value greater than 200)	< 500	** (The symbol “**” indicates a value in the range of greater than 90 to 150)
CN(C)c1cncc(-c2ccc3c(c2)N(S(=O)(=O)c2cccc(C(F)(F)F)c2)C[C@H](CCC(=O)O)O3)n1 [Compound 4AL, (S)-3-(6-(6-(dimethylamino)-pyrazin-2-yl)-4-((3-(trifluoromethyl)phenyl)-sulfonyl)-3,4-dihydro-2H-benzo[b][1,4]oxazin-2-yl)propanoic acid]	< 500	**** (The symbol “****” indicates a value greater than 200)	< 500	** (The symbol “**” indicates a value in the range of greater than 90 to 150)
CNc1cccc(-c2ccc3c(c2)N(S(=O)(=O)c2cccc(C(F)(F)F)c2)C[C@H](CCC(=O)O)O3)n1 [Compound 4AM, (S)-3-(6-(6-(methylamino)-pyridin-2-yl)-4-((3-(trifluoromethyl)phenyl)-sulfonyl)-3,4-dihydro-2H-benzo[b][1,4]oxazin-2-yl)propanoic acid]	< 500	**** (The symbol “****” indicates a value greater than 200)	500 to 5000	** (The symbol “**” indicates a value in the range of greater than 90 to 150)
Cc1cc(-c2ccc3c(c2)N(S(=O)(=O)c2cccc(C(F)(F)F)c2)C[C@H](CCC(=O)O)O3)nc(N(C)C)c1 [Compound 4AN, (S)-3-(6-(6-(dimethylamino)-4-methylpyridin-2-yl)-4-((3-(trifluoromethyl)phenyl)sul-fonyl)-3,4-dihydro-2H-benzo[b][1,4]oxazin-2-yl)propanoic acid]	< 500	**** (The symbol “****” indicates a value greater than 200)	< 500	** (The symbol “**” indicates a value in the range of greater than 90 to 150)
Cc1ccc(N(C)C)nc1-c1ccc2c(c1)N(S(=O)(=O)c1cccc(C(F)(F)F)c1)C[C@H](CCC(=O)O)O2 [Compound 4AO, (S)-3-(6-(6-(dimethylamino)-3-methylpyridin-2-yl)-4-((3-(trifluoromethyl)phenyl)sul-fonyl)-3,4-dihydro-2H-benzo[b][1,4]oxazin-2-yl)propanoic acid]	500 to 5000	* (The symbol “*” indicates a value in the range of 25 to 90)	> 10000	* (The symbol “*” indicates a value in the range of 25 to 90)
COc1cc(-c2ccc3c(c2)N(S(=O)(=O)c2cccc(C(F)(F)F)c2)C[C@H](CCC(=O)O)O3)nc(N(C)C)c1 [Compound 4AP, (S)-3-(6-(6-(dimethylamino)-4-methoxypyridin-2-yl)-4-((3-(trifluoromethyl)phenyl)sul-fonyl)-3,4-dihydro-2H-benzo[b][1,4]oxazin-2-yl)propanoic acid]	< 500	**** (The symbol “****” indicates a value greater than 200)	< 500	** (The symbol “**” indicates a value in the range of greater than 90 to 150)
O=C(O)CC[C@H]1CN(S(=O)(=O)c2cccc(C(F)(F)F)c2)c2cc(-c3cc(Cl)cc(F)c3F)ccc2O1 [Compound 4AQ, (S)-3-(6-(5-chloro-2,3-difluorophenyl)-4-((3-(trifluoromethyl)phenyl)sul-fonyl)-3,4-dihydro-2H-benzo[b][1,4]oxazin-2-yl)propanoic acid]	< 500	**** (The symbol “****” indicates a value greater than 200)	< 500	** (The symbol “**” indicates a value in the range of greater than 90 to 150)
COc1cc(F)c(F)c(-c2ccc3c(c2)N(S(=O)(=O)c2cccc(C(F)(F)F)c2)C[C@H](CCC(=O)O)O3)c1 [Compound 4AR, (S)-3-(6-(2,3-difluoro-5-methoxyphenyl)-4-((3-(trifluoromethyl)phenyl)sul-fonyl)-3,4-dihydro-2H-benzo[b][1,4]oxazin-2-yl)propanoic acid]	< 500	**** (The symbol “****” indicates a value greater than 200)	< 500	** (The symbol “**” indicates a value in the range of greater than 90 to 150)
O=C(O)CC[C@H]1CN(S(=O)(=O)c2cccc(C(F)(F)F)c2)c2cc(-c3cc(C(F)(F)F)cc(F)c3F)ccc2O1 [Compound 4AS, (S)-3-(6-(2,3-difluoro-5-(trifluoromethyl)phenyl)-4-((3-(trifluoromethyl)phenyl)-sulfonyl)-3,4-dihydro-2H-benzo[b][1,4]oxazin-2-yl)propanoic acid]	< 500	**** (The symbol “****” indicates a value greater than 200)	< 500	** (The symbol “**” indicates a value in the range of greater than 90 to 150)
CN(C)c1ccnc(-c2ccc3c(c2)N(S(=O)(=O)c2cccc(C(F)(F)F)c2)C[C@H](CCC(=O)O)O3)n1 [Compound 4AU, (S)-3-(6-(4-(dimethylamino)-pyrimidin-2-yl)-4-((3-(trifluoromethyl)phenyl)-sulfonyl)-3,4-dihydro-2H-benzo[b][1,4]oxazin-2-yl)propanoic acid]	< 500	**** (The symbol “****” indicates a value greater than 200)	500 to 5000	** (The symbol “**” indicates a value in the range of greater than 90 to 150)
O=C(O)CC[C@H]1CN(S(=O)(=O)c2cccc(C(F)(F)F)c2)c2cc(-c3cc(F)cc(Cl)c3F)ccc2O1 [Compound 4AY, (S)-3-(6-(3-chloro-2,5-difluorophenyl)-4-((3-(trifluoromethyl)phenyl)-sulfonyl)-3,4-dihydro-2H-benzo[b][1,4]oxazin-2-yl)propanoic acid]	< 500	*** (The symbol “***” indicates a value in the range of greater than 150 to 200)	< 500	** (The symbol “**” indicates a value in the range of greater than 90 to 150)
COc1cc(F)cc(-c2ccc3c(c2)N(S(=O)(=O)c2cccc(C(F)(F)F)c2)C[C@H](CCC(=O)O)O3)c1F [Compound 4AZ, (S)-3-(6-(2,5-difluoro-3-methoxyphenyl)-4-((3-(trifluoromethyl)phenyl)-sulfonyl)-3,4-dihydro-2H-benzo[b][1,4]oxazin-2-yl)propanoic acid]	< 500	**** (The symbol “****” indicates a value greater than 200)	< 500	** (The symbol “**” indicates a value in the range of greater than 90 to 150)
